Molecular target: T1, human granzyme B (Homo sapiens, UniProt P10144)
T1 construct: the first amino acid of mature granzyme B; hexa-histidine tag (N, cleaved yes); Factor Xa recognition site Ile-Glu-Gly-Arg (N, cleaved yes); honeybee melittin secretion signal (N, cleaved yes); made in house; host or cells: Sf9 insect cells (baculovirus, Bac-to-Bac)
Experiment: Fluorogenic assay for granzyme B (Ac-IEPD-AMC substrate)
Type: biochemical
Settings: recombinant granzyme B, substrate Ac-IEPD-AMC 10 μM, pH 7.5, 25° C.; read-out: Gzm B Ki
Excerpt: Plasmids pMelBac and the TA Cloning Kit (pCR2.1) were purchased from Invitrogen (Carlsbad, Calif.). The Bac-to-Bac Baculovirus Expression System and all cell culture supplies were from Life Technologies (Gaithersburg, Md.). The human granzyme B protease has been identified and is known in the art. See, for example, Poe, et al., J. Biol. Chem. 266, 98-103. A vector was generated for secreted protein expression in the Bac-to-Bac system. The honeybee melittin secretion signal was amplified from pMelBac by PCR with primers 5′-GTGT AGATCTATGAAATTCTTAGTCAACG-3′ and 5′-TTCAGCAGAGTCGACTCCAAG-3′. The amplified product contained a BglII site upstream of the melittin secretion signal and spanned the multiple cloning site of the vector. The fragment was digested with BglII and EcoRI and subcloned into BamHI and EcoRI digested pFastBac. The resulting vector was designated pSecBac. Activatable tagged human granzyme B was cloned into pSecBac in two sequential steps. Firstly, mature granzyme B was amplified by PCR with primers 5′-GGATCC ATC GAA GGT CGT ATC ATC GGAGGACATGAGGCC-3′ and 5′-AAGCTTTTAGTAGCGCTTCATGGTCTTCTTTATCC-3′ and cloned into pCR2.1. In the sense primer, the bold type sequence coding for the Factor Xa recognition site, Ile-Glu-Gly-Arg, was inserted upstream of isoleucine 21 (referred to as ILE 16 in this paper using the numbering scheme for this family of serine proteases is traditionally based on the zymogen, chymotrypsinogen), the first amino acid of mature granzyme B. Secondly, hexa-histidine tagged, activatable granzyme B was amplified from the granzyme B/pCR2.1 clone by PCR using primers 5′-GGAAGATCTCATCATCATCATCATCATGGATCCATCGAAGGTCGTATC-3′ and 5′-CCT GAA TTC TTA GTA GCG TIT CAT GGT CTT CTT TAT CC-3′. The amplified product contained a Bali site upstream of the hex-histidine tag and contained the Factor Xa recognition sequence. This fragment was digested with Bali and ECOR and subcloned into BamHI and EcoRI digested pSecBac. The completed vector generated a recombinant baculovirus in Gibco BRL's Bac-to-Bac system, which would produce a secreted, 6-histidine tagged granzyme B. For protein expression, sf9 cells were grown to a density of 1.5×10^6 cells ml^−1 in Grace's medium (Cat. 11605-094) supplemented with 10% fetal calf serum and penicillin-streptomycin-glutamine (Cat. 10378-024). Prior to the addition of virus, cells were centrifuged at 1000×g for 15 minutes and resuspended to the same density in fresh growth medium containing recombinant viral stock and SP Sepharose beads (4 ml resin per liter of culture). After 72 hours of induction at 27° C., the resin was collected in a 50 micron Nylon mesh (PGC Scientifics), extensively washed with 50 mM Mes.NaOH, 0.3 M Na Cl, pH 6.6 and poured onto a column. The protein was eluted using a linear gradient (0.3 to 1.0 M) of NaCl. Fractions containing granzyme B activity were identified, combined and concentrated and then diluted in 20 mM Tris.HCl, pH 8.0. The sample was readjusted to a final pH 8.0, CaCl2 (3 mM final concentration) and factor Xa (Pharmacia, 10 units per mg of protein) were added, and incubated for 18 hours at room temperature to generate active granzyme B. Under these conditions, complete cleavage is achieved. The recombinant granzyme B was purified from the cleavage mixture using a 1 ml HiTrap SP column (Pharmacia). The yield can be as much as 4-5 mg of purified granzyme B per liter of culture. Mass spectral analysis identifies one major peak at 27,466 Da (other components of 27,320 Da and 26,630 Da were also consistently observed). Since the combined mass of the 227-amino acids defined by sequence analysis only accounts for 25,511.58 Da, we concluded that preparations of recombinant granzyme B purified with this method are more homogenous and less glycosylated than preparations of native granzyme B purified from NK cell granules. […]

T1 sequence (P10144 21-247): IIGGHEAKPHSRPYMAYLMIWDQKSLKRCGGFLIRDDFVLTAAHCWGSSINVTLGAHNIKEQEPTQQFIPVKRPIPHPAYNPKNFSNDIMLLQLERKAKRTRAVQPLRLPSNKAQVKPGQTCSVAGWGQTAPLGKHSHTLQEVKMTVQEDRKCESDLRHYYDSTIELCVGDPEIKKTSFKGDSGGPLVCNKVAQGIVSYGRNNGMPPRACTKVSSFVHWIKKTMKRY

Structure (SMILES) | Ki
CC[C@H](C)[C@@H](C(=O)N[C@H]1CCc2cccc3c2N(C1=O)[C@H](C(=O)NCc1c[nH]nn1)C3)N1CCCC1=O [Example 30] | 112 nM
CC(C)[C@@H](C(=O)N[C@H]1CCc2cccc3c2N(C1=O)[C@H](C(=O)NCc1nn[nH]n1)C3)c1ccccn1 [Example 21] | 410 nM
CC[C@H](C)[C@H](NC(=O)Cc1ccccc1)C(=O)N[C@H]1CCc2cccc3c2N(C1=O)[C@H](C(=O)NCc1c[nH]nn1)C3 [Example 4, (2S,5S)-4-oxo-5-{[N-(phenylacetyl)-L-isoleucyl]amino}-N-(1H-1,2,3-triazol-4-ylmethyl)-1,2,4,5,6,7-hexahydroazepino[3,2,1-hi]indole-2-carboxamide] | 13 nM
O=C(CC1CCCC1)N[C@H]1CCc2cccc3c2N(C1=O)[C@H](C(=O)NCc1c[nH]nn1)C3 [Example 31] | 1840 nM
CC[C@H](C)[C@H](NC(=O)CN(C)C)C(=O)N[C@H]1CCc2cccc3c2N(C1=O)[C@H](C(=O)NCc1nn[nH]n1)C3 [Example 25] | 203 nM
CC[C@H](C)[C@H](NC(C)=O)C(=O)N[C@H]1CCc2cccc3c2N(C1=O)[C@H](C(=O)NCc1cn2cccnc2n1)C3 [Example 19] | 788 nM
CC[C@H](C)[C@H](NC(=O)Cc1cccc(F)c1F)C(=O)N[C@H]1CCc2cccc3c2N(C1=O)[C@H](C(=O)NCc1nn[nH]n1)C3 [Example 24] | 36 nM
CC(=O)N1CSC(C)(C)[C@H]1C(=O)N[C@H]1CCc2cccc3c2N(C1=O)[C@H](C(=O)NCc1c[nH]nn1)C3 [Example 29] | 3880 nM

Further lines, results first:

Ki | Structure (SMILES)
7 nM | CC[C@H](C)[C@H](NC(=O)Cc1csc2ccccc12)C(=O)N[C@H]1CCc2cccc3c2N(C1=O)[C@H](C(=O)NCc1c[nH]nn1)C3 [Example 28]
1020 nM | CC(=O)N[C@H](C(=O)N[C@H]1CCc2cccc3c2N(C1=O)[C@H](C(=O)NCc1c[nH]nn1)C3)C1CC1 [Example 32]
38 nM | CC[C@H](C)[C@H](NC(C)=O)C(=O)N[C@H]1CCc2cccc3c2N(C1=O)[C@H](C(=O)NCc1c[nH]nn1)C3 [Example 2, (2S,5S)-5-[(N-acetyl-L-isoleucyl)amino]-4-oxo-N-(1H-1,2,3-triazol-4-ylmethyl)-1,2,4,5,6,7-hexahydroazepino[3,2,1-hi]indole-2-carboxamide]
17 nM | CC[C@H](C)[C@H](NC(=O)Cc1csc2ccccc12)C(=O)N[C@H]1CCc2cccc3c2N(C1=O)[C@H](C(=O)NCc1nn[nH]n1)C3 [Example 26]
74 nM | CC[C@H](C)[C@H](NC(C)=O)C(=O)N[C@H]1CCc2cccc3c2N(C1=O)[C@H](C(=O)NCc1nn[nH]n1)C3 [Example 1, (2S,5S)-5-[(N-acetyl-L-isoleucyl)amino]-4-oxo-N-(1H-tetraazol-5-ylmethyl)-1,2,4,5,6,7-hexahydroazepino[3,2,1-hi]indole-2-carboxamide]
71 nM | CC(=O)N[C@H](C(=O)N[C@H]1CCc2cccc3c2N(C1=O)[C@H](C(=O)NCc1c[nH]nn1)C3)C1CCCC1 [Example 33]
45 nM | CC[C@H](C)[C@H](NC(=O)CN(C)C)C(=O)N[C@H]1CCc2cccc3c2N(C1=O)[C@H](C(=O)NCc1c[nH]nn1)C3 [Example 27]
